Assay: excess molar enthalpy (molar enthalpy of mixing); xn = mol fraction of the nth substance listed
Settings: 100 kPa

CCCCOCCO + CCOC(=O)OCC
298.15 K
Settings | excess molar enthalpy [kJ/mol]
x2 = 0.043 | 0.168
x2 = 0.0431 | 0.159
x2 = 0.0824 | 0.318
x2 = 0.0827 | 0.296
x2 = 0.1188 | 0.448
x2 = 0.1191 | 0.41
x2 = 0.2123 | 0.742
x2 = 0.2129 | 0.681
x2 = 0.265 | 0.8
x2 = 0.3503 | 1.06
x2 = 0.351 | 0.959
x2 = 0.4181 | 1.16
x2 = 0.4189 | 1.05
x2 = 0.5196 | 1.12
x2 = 0.6138 | 1.12
x2 = 0.618 | 1.24
x2 = 0.6832 | 1.18
x2 = 0.7639 | 1.03
x2 = 0.7644 | 0.95
x2 = 0.8118 | 0.911
x2 = 0.8123 | 0.846
x2 = 0.8661 | 0.723
x2 = 0.8665 | 0.665
x2 = 0.8961 | 0.596
x2 = 0.8964 | 0.56
x2 = 0.9228 | 0.248
x2 = 0.9283 | 0.444
x2 = 0.9285 | 0.416

CCCCOCCOCCO + CCOC(=O)OCC
Settings | excess molar enthalpy [kJ/mol]
298.15 K, x2 = 0.0553 | 0.091
298.15 K, x2 = 0.1047 | 0.181
298.15 K, x2 = 0.1493 | 0.251
298.15 K, x2 = 0.1896 | 0.332
298.15 K, x2 = 0.2598 | 0.445
298.15 K, x2 = 0.3188 | 0.523
298.15 K, x2 = 0.4125 | 0.63
298.15 K, x2 = 0.4834 | 0.69
298.15 K, x2 = 0.584 | 0.736
298.15 K, x2 = 0.6781 | 0.734
298.15 K, x2 = 0.8081 | 0.628
298.15 K, x2 = 0.8488 | 0.549
298.15 K, x2 = 0.8939 | 0.437
298.15 K, x2 = 0.9182 | 0.37
298.15 K, x2 = 0.944 | 0.268
298.15 K, x2 = 0.9712 | 0.149
313.15 K, x2 = 0.1043 | 0.218
313.15 K, x2 = 0.1488 | 0.311
313.15 K, x2 = 0.3179 | 0.625
313.15 K, x2 = 0.4114 | 0.733
313.15 K, x2 = 0.4823 | 0.809
313.15 K, x2 = 0.583 | 0.858
313.15 K, x2 = 0.6772 | 0.854
313.15 K, x2 = 0.7366 | 0.806
313.15 K, x2 = 0.8075 | 0.716
313.15 K, x2 = 0.8935 | 0.501
313.15 K, x2 = 0.9179 | 0.407
313.15 K, x2 = 0.9438 | 0.299
313.15 K, x2 = 0.9711 | 0.164

CCOCCO + CCOC(=O)OCC
Settings | excess molar enthalpy [kJ/mol]
298.15 K, x2 = 0.0322 | 0.094
298.15 K, x2 = 0.0624 | 0.181
298.15 K, x2 = 0.1175 | 0.335
298.15 K, x2 = 0.1666 | 0.46
298.15 K, x2 = 0.2104 | 0.57
298.15 K, x2 = 0.2855 | 0.714
298.15 K, x2 = 0.4442 | 0.931
298.15 K, x2 = 0.5454 | 0.979
298.15 K, x2 = 0.7057 | 0.924
298.15 K, x2 = 0.8275 | 0.712
298.15 K, x2 = 0.8648 | 0.607
298.15 K, x2 = 0.9056 | 0.466
313.15 K, x2 = 0.0321 | 0.117
313.15 K, x2 = 0.0623 | 0.222
313.15 K, x2 = 0.0906 | 0.315
313.15 K, x2 = 0.1173 | 0.398
313.15 K, x2 = 0.2099 | 0.662
313.15 K, x2 = 0.285 | 0.831
313.15 K, x2 = 0.3469 | 0.946
313.15 K, x2 = 0.4436 | 1.07
313.15 K, x2 = 0.5447 | 1.13
313.15 K, x2 = 0.6146 | 1.13
313.15 K, x2 = 0.7052 | 1.06
313.15 K, x2 = 0.8271 | 0.808
313.15 K, x2 = 0.8645 | 0.692
313.15 K, x2 = 0.9054 | 0.518
313.15 K, x2 = 0.9503 | 0.3

Reference: a compilation of properties of binary mixtures (doi:10.1021/je990135o)
